Results taken from ChEMBL document CHEMBL1201862, “PubChem BioAssay data set” (2004).
Activity calls are given as the source filed them. Peptide text beside a SMILES is read from it.

Key:
Cytochrome P450 2C19 = Cytochrome P450 2C19 (Homo sapiens, UniProt P33261); assay: Cytochrome panel assay with activity outcomes. Panel member name: p450-cyp2c19 Compounds with AC50 equal or less than 10 uM are considered active; format: functional; conditions: read-out: AC50
Cytochrome P450 2C9 = Cytochrome P450 2C9 (Homo sapiens, UniProt P11712)
Cytochrome P450 3A4 = Cytochrome P450 3A4 (Homo sapiens, UniProt P08684);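 note: CYP3A4 tested as one member of a cytochrome P450 panel screen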
Cytochrome P450 2D6 = Cytochrome P450 2D6 (Homo sapiens, UniProt P10635);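 note: CYP2D6 member of a cytochrome P450 panel assay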
[1] = Luminescence Cell-Based Dose Response HTS to Identify Activators of Luciferase Translation or Activity in H4 […] Cells. [Related pubchem assays: 1829 (Project Summary), 1814 (Primary HTS)]; format: functional
H4 = assay: Luminescence Cell-Based Dose Response HTS to Identify Activators of 5'UTR Stem-Loop Driven Prion Protein mRNA Translation in H4 Neuroglioblastoma Cells. [Related pubchem assays: 1829 (Project Summary), 1814 (Primary HTS)]; format: functional; conditions: Homo sapiens
[2] = molecular target: T1, Heat shock factor protein 1 (Mus musculus, UniProt P38532); assay: inhibition of MG132-induced HSE-luciferase signal, confirmation, cell-based, NIH3T3, luminescence, dose retest (AID 2382); format: functional;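 note: NIH3T3 fibroblasts with HSF1-driven luciferase reporter stressed by proteasome inhibitor MG132; luminescence from HSF1-driven luciferase expression after 8 hours of MG132 stress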
T1 sequence (P38532 whole entry): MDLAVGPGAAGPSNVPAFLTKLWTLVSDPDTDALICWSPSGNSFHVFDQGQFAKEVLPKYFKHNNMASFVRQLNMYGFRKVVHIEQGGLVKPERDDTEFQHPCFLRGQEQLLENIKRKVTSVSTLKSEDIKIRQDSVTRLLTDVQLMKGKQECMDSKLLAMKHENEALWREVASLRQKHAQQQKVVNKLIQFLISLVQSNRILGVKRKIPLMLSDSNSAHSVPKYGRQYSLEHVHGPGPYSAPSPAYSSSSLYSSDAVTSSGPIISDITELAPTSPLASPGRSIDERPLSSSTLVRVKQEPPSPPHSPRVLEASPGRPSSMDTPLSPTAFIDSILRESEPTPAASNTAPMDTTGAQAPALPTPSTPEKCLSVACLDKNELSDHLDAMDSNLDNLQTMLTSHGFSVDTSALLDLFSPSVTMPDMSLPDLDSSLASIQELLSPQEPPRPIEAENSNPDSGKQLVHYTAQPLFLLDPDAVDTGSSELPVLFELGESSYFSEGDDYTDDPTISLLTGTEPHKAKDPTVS

[3] = HEp-2 cell cytotoxicity, dose response, cytotoxicity control for RSV inhibitor project, HTS (AID 2410); format: functional; conditions: human respiratory syncytial virus
Streptokinase A = molecular target: T2, Streptokinase A (Streptococcus pyogenes serotype M1, UniProt P10520); assay: S. pyogenes streptokinase expression inhibitors, potency, dose response, plasminogen activation absorbance, OD405 (AID 1914); format: functional, Streptococcus pyogenes M1 GAS;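 note: secreted streptokinase activity via plasminogen activation per viability signal from cell pellet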
T2 sequence (P10520 whole entry): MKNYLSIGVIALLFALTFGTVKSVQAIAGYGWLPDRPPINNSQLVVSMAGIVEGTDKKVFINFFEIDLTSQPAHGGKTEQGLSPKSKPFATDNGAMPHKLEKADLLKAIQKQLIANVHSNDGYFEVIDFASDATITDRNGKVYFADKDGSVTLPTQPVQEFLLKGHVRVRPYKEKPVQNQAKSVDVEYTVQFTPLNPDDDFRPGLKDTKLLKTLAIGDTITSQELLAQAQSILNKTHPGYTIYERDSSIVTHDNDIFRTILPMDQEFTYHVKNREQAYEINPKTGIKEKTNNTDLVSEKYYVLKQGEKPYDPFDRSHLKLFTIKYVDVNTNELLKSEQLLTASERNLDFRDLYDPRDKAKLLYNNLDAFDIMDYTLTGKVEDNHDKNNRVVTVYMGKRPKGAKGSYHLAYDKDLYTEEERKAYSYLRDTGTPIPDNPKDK

[4] = test system: Streptococcus sp. 'group A'; assay: growth inhibition of control SK(-) GAS strain, dose response, counter-screen for streptokinase expression inhibitor project, luminescence, kanamycin, BacTiterGlo, confirmation (AID 1900); format: functional, organism-based
Streptococcus = assay: Group A Streptococcus viability loss, dose response, counter-screen for streptokinase expression inhibitor project, luminescence, BacTiterGlo (AID 1915); format: functional, organism-based;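 note: potency for reduction of bacterial viability or growth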
Cytochrome P450 1A2 = molecular target: T3, Cytochrome P450 1A2 (Homo sapiens, UniProt P05177);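 note: PubChem cytochrome P450 panel assay, CYP1A2 panel member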
T3 sequence (P05177 whole entry): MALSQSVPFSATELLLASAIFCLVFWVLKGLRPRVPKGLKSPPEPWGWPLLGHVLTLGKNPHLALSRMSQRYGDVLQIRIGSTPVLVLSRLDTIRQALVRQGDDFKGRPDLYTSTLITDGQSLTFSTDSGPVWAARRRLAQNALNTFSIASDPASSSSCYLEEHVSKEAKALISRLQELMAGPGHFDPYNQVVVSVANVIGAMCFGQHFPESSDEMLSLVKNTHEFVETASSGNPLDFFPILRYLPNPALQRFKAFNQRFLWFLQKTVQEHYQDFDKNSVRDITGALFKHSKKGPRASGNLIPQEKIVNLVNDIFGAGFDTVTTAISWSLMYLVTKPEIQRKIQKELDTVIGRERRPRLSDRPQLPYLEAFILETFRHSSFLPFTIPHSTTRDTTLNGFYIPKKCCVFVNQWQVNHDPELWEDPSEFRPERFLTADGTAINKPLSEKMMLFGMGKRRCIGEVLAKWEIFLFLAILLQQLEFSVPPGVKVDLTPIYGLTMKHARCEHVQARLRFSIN

[5] = inhibitors of firefly luciferase expression or activity, dose response, H4 neuroglioma cells, luminescence (AID 1990); format: functional, cell-based
[6] = inhibitors of SNCA 5'UTR-driven reporter translation, confirmation, H4 neuroglioma cells, luminescence (AID 1988); format: functional, cell-based
Paired box protein Pax-8 = Paired box protein Pax-8 (Homo sapiens, UniProt Q06710); assay: inhibitors of PAX8-driven TPO luciferase reporter, dose response, RMG-I cells, cherry-pick (AID 687027); format: functional, cell-based;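 note: luciferase reporter driven by Pax8 target thyroperoxidase promoter measured by SteadyGlo luminescence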
Sequence of Paired box protein Pax-8 (Q06710 whole entry): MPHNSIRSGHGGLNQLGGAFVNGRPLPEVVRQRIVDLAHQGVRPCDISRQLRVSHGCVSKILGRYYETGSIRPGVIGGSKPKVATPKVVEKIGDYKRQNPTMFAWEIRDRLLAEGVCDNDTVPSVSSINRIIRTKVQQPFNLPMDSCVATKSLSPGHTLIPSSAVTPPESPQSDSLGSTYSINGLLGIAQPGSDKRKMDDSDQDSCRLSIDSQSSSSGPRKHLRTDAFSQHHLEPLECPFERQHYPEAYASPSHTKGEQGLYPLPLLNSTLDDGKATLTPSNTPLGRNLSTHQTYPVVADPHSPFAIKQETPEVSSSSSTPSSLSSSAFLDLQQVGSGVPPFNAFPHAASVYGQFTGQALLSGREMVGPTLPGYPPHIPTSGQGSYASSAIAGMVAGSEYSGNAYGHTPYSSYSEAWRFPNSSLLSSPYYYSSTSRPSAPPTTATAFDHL

Sequence of Cytochrome P450 3A4 (P08684 whole entry): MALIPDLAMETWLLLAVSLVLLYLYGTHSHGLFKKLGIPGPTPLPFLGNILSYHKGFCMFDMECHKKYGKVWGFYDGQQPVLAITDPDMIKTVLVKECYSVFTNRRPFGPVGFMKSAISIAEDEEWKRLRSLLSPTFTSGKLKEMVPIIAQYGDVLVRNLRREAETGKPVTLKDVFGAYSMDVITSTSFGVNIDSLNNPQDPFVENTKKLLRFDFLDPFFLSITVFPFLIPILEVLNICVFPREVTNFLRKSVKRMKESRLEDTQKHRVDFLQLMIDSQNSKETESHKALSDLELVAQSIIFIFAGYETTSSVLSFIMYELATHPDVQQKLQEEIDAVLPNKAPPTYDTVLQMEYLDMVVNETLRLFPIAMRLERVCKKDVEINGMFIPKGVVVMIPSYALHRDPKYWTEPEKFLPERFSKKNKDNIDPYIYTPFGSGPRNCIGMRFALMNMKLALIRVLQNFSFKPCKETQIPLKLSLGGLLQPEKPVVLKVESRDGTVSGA
Sequence of Cytochrome P450 2C9 (P11712 whole entry): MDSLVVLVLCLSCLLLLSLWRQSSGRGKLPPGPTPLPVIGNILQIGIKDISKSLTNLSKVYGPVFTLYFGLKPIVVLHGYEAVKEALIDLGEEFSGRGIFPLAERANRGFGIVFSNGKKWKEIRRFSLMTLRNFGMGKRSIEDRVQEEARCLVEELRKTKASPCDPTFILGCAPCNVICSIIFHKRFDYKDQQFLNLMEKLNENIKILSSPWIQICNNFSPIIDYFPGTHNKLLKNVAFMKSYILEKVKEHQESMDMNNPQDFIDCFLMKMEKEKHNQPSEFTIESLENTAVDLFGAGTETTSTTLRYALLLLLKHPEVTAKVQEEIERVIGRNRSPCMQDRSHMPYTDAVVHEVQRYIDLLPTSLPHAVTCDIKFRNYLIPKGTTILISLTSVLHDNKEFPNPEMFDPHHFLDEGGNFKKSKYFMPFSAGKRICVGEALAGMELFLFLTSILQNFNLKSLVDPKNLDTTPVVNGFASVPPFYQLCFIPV
Sequence of Cytochrome P450 2D6 (P10635 whole entry): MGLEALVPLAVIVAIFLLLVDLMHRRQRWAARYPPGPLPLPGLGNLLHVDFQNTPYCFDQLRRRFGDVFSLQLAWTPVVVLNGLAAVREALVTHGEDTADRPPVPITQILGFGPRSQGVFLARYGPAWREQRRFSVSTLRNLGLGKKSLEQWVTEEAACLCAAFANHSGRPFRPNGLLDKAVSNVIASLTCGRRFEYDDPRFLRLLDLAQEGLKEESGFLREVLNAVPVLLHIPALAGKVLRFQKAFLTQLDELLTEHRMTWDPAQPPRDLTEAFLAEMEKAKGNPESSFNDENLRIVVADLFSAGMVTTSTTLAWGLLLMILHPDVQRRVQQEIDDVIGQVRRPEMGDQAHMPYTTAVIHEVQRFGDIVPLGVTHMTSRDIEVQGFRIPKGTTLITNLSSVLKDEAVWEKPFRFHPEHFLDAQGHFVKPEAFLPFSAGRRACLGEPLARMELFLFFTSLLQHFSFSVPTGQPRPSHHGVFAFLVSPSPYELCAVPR
Sequence of Cytochrome P450 2C19 (P33261 whole entry): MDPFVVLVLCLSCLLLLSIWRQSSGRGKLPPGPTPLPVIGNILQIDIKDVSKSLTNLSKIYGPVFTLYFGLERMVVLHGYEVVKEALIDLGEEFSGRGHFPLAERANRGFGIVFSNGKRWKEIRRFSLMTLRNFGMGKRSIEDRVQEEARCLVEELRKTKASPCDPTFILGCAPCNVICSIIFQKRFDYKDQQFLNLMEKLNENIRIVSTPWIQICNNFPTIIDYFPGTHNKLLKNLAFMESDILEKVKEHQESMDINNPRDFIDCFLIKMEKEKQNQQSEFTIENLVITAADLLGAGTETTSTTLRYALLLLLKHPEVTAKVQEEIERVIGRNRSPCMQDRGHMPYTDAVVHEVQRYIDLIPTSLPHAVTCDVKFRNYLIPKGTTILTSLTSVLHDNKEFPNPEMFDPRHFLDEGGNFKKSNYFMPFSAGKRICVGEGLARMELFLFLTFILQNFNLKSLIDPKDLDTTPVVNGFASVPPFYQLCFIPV

Cc1cccc(NC2=NN=C(c3ccc4c(c3)OCCO4)CS2)c1
AC50 (Cytochrome P450 2C19): 5.01 µM (inconclusive) | AC50 (Cytochrome P450 2C9): 5.62 µM (inconclusive) | AC50 (Cytochrome P450 3A4): 2.82 µM (inconclusive) | AC50 (Cytochrome P450 2D6): 17.8 µM (inconclusive)

C=C1CCC2[C@](C)(CO)[C@H](O)CC[C@@]2(C)[C@@H]1C/C=C1\C(=O)OC[C@H]1O (some centres not stated)
EC50 [1]: > 120 µM (not active) | EC50 (H4): 33 µM (active)

Cc1cn2c(nc(=O)c3cccnc32)s1
EC50 [2]: > 195 µM (not active)

NC(=O)c1cc2n(n1)C(C(F)(F)F)CC(c1ccco1)N2 (configuration not stated)
CC50 [3]: 24.5 µM (active)

COc1cc(C=O)ccc1OC(=O)c1ccc(C(C)C)cc1
EC50 [2]: > 195 µM (not active)

O=C(NC1CCCc2ccccc21)C1CCN(S(=O)(=O)N2CCCCCC2)CC1 (configuration not stated)
AC50 (Cytochrome P450 2C9): 31.6 µM (inconclusive) | AC50 (Cytochrome P450 2D6): 20 µM (inconclusive)

Cc1ccc(/C=C/C(=O)OCC(=O)NCCN2C(=O)CSC2=O)o1
EC50 [2]: > 195 µM (not active)

CCOCc1cnc(C)nc1NCC(=O)c1c(C)[nH]c2ccccc12
AC50 (Cytochrome P450 2D6): 12.6 µM (inconclusive)

COc1cnc(-c2ccccn2)nc1Oc1ccccc1Cl
EC50 (Streptokinase A): > 150 µM (not active) | EC50 [4]: > 150 µM (not active) | EC50 (Streptococcus): > 150 µM (not active)

O=C(c1cccc(F)c1)N1CCC[C@@]2(CCN(Cc3ccncc3)C2)C1
AC50 (Cytochrome P450 2C9): 20 µM (inconclusive) | AC50 (Cytochrome P450 2D6): 25.1 µM (inconclusive)

COc1ccc(/C=C/C(=O)N2CCC(C(N)=O)CC2)cc1S(=O)(=O)N1CCOCC1
EC50 [2]: > 195 µM (not active)

CC(C)(C)C(CN1CCCC1)OC(=O)c1ccccc1 (configuration not stated)
EC50 [2]: 19.7 µM (active)

COc1cc(NS(=O)(=O)c2ccc(NC(=O)/C=C/C(=O)O)cc2)nc(OC)n1
EC50 [2]: > 195 µM (not active)

CCOCC(=O)Nc1ccc([N+](=O)[O-])cc1Cl
CC50 [3]: > 50 µM (active)

CC1CN(C(=O)c2cc(S(=O)(=O)N(C)c3ccc(F)cc3)ccc2Cl)CC(C)O1 (configuration not stated)
EC50 [2]: > 195 µM (not active)

O=C1c2ccccc2CCC12N=NCC2c1ccc(Cl)cc1 (configuration not stated)
AC50 (Cytochrome P450 1A2): 20 µM (inconclusive) | AC50 (Cytochrome P450 3A4): 39.8 µM (inconclusive) | AC50 (Cytochrome P450 2D6): 28.2 µM (inconclusive)

CC(C)Cc1csc(NC(=O)c2ccc(Br)cc2)c1C(=O)O
EC50 (Streptokinase A): > 150 µM (not active) | EC50 [4]: 3.59 µM (active) | EC50 (Streptococcus): 6.59 µM (active)

COC(=O)c1nc(NC(=S)NC(=O)c2cccs2)sc1C
EC50 (Streptokinase A): > 150 µM (not active) | EC50 [4]: 9.59 µM (active) | EC50 (Streptococcus): > 150 µM (not active)

O=C(CCCCCNC(=O)c1ccccc1)N=Nc1c(O)[nH]c2c(Br)cc(Br)cc12
EC50 (Streptokinase A): > 150 µM (not active) | EC50 [4]: 6.76 µM (active) | EC50 (Streptococcus): 28.4 µM (active)

Cc1ccc(-c2nnn(CC(=O)N(Cc3ccco3)C(C(=O)NC(C)(C)C)c3ccc(C)o3)n2)o1 (configuration not stated)
CC50 [3]: > 50 µM (active)

Fc1ccc(-n2cc(-c3ccccc3)c3c(NN4CCOCC4)ncnc32)cc1
EC50 [5]: > 120 µM (not active) | EC50 [6]: > 120 µM (not active)

FC(F)(F)c1nc2nc(Cl)c(Cl)nc2n1CCCN1CCOCC1
AC50 (Cytochrome P450 1A2): 3.16 µM (inconclusive) | AC50 (Cytochrome P450 3A4): 5.01 µM (inconclusive) | AC50 (Cytochrome P450 2D6): 3.98 µM (inconclusive)

CCc1ccc(NC(=S)N2CCN(c3cccc(C(F)(F)F)c3)CC2)cc1
AC50 (Cytochrome P450 2C19): 4.47 µM (inconclusive) | AC50 (Cytochrome P450 2D6): 0.01 µM (inconclusive)

O=C(c1nn(Cc2ccccc2)c(=O)c2ccccc12)N1CCN(C/C=C/c2ccccc2)CC1
AC50 (Cytochrome P450 1A2): 20 µM (inconclusive) | AC50 (Cytochrome P450 2D6): 17.8 µM (inconclusive)

COc1ccccc1-c1cc(NCc2cnc(C)cn2)ncn1
AC50 (Cytochrome P450 2D6): 20 µM (inconclusive)

O=c1c(CCc2ccccc2)nc2cncnc2n1-c1ccccc1
AC50 (Cytochrome P450 2C9): 25.1 µM (inconclusive) | AC50 (Cytochrome P450 3A4): 5.01 µM (inconclusive) | AC50 (Cytochrome P450 2D6): 25.1 µM (inconclusive)

CCc1c2c(nc3cccc(OC)c13)OC(CC)C2 (configuration not stated)
AC50 (Cytochrome P450 2C19): 20 µM (inconclusive) | AC50 (Cytochrome P450 2D6): 39.8 µM (inconclusive)

Cc1ccnc(NC(=O)c2cccc(S(=O)(=O)N3CCN(c4ccc(F)cc4)CC3)c2)c1
CC50 [3]: 13.4 µM (active)

O=C(c1ccccc1Cc1ccccc1)N1CCN(S(=O)(=O)c2ccccc2Br)CC1
CC50 [3]: 33.7 µM (active)

Cc1cc(OCC(=O)NCCO)cc(C)c1Cl
EC50 [2]: > 195 µM (not active)

CCCCc1ccc(NC(=O)NCc2ccccn2)cc1
EC50 (Streptokinase A): > 150 µM (not active) | EC50 [4]: > 150 µM (not active) | EC50 (Streptococcus): > 150 µM (not active)

COCC(=O)N1CCC2(CCCN(Cc3ccncc3)C2)CC1
AC50 (Cytochrome P450 3A4): 12.6 µM (inconclusive) | AC50 (Cytochrome P450 2D6): 15.8 µM (inconclusive)

C=CCNC(=O)c1c(O)c2cccc3c2n(c1=O)CCC3
CC50 [3]: > 50 µM (active)

Cc1ccc(C)c(N2CCN(C(=O)C3CCCN(c4ncnc5c4nc4n5CCCCC4)C3)CC2)c1 (configuration not stated)
CC50 [3]: 20.6 µM (active)

COc1ccc(C(=O)OC2CCN(c3ncc(C(F)(F)F)cc3Cl)CC2)cc1
EC50 (Streptokinase A): > 150 µM (not active) | EC50 [4]: 66.5 µM (active) | EC50 (Streptococcus): 39.7 µM (active)

C=C(Cl)COc1ccc2c(CCCC)cc(=O)oc2c1
CC50 [3]: 38.2 µM (active)

S=C(c1ccc(-c2ccc(Cl)c(Cl)c2)o1)N1CCOCC1
CC50 [3]: 29.4 µM (active)

COc1cccc(-c2nc(CS(=O)(=O)CC(=O)NCCCN3CC(C)CC(C)C3)c(C)o2)c1 (configuration not stated)
AC50 (Paired box protein Pax-8): 19.1 µM (active)

Oc1nc2ccccc2n1C1CCN(C(c2cccc3ccccc23)c2nnnn2-c2ccc3c(c2)OCCO3)CC1 (configuration not stated)
AC50 (Paired box protein Pax-8): 3.78 µM (active)

C/C(=N\NC(=O)c1ccc(O)cc1)c1cccc(NC(=O)c2ccccc2C)c1
EC50 (Streptokinase A): > 150 µM (not active) | EC50 [4]: > 150 µM (not active) | EC50 (Streptococcus): > 150 µM (not active)

O=C(CSc1nc2ccccc2s1)N/N=C/c1ccccc1C(=O)O
EC50 [2]: 5.59 µM (active)

Cc1ccccc1C(=O)Nc1nnc(CC(=O)N/N=C/c2ccco2)s1
EC50 [2]: > 195 µM (not active)

COC(=O)C(CC(C)C)NC(=O)C(N)Cc1ccccc1 (stereo not drawn) (H-Phe-Leu-OMe; configuration not given here)
AC50 (Cytochrome P450 2C19): 17.8 µM (inconclusive) | AC50 (Cytochrome P450 2D6): 15.8 µM (inconclusive)

CCN(CC)CCNC(=O)c1cc(Br)c(N)cc1OC [BROMOPRIDE]
AC50 (Cytochrome P450 1A2): 10 µM (inconclusive) | AC50 (Cytochrome P450 2D6): 5.01 µM (inconclusive)
